According to the NIST ThermoML archive (doi:10.1016/j.tca.2013.08.016):
± gives the expanded uncertainty stated by the source.

Columns and labels:
[1] = refractive index (Na D-line) (dimensionless); φn = volume fraction of the nth substance listed; conditions: 101 kPa, Liquid, Standard Abbe refractometry
[2] = refractive index (Na D-line) (dimensionless); conditions: 101.33 kPa, Liquid, Standard Abbe refractometry

Q: For `CO` [methanol] + CCCC[n+]1ccc(C)cc1.F[B-](F)(F)F, which refractive index ([1]; 293.15 K, φ2 = 0) is on record?
A: The refractive index was 1.32843 ± 0.0004.

Q: And the refractive index ([1]; 303.15 K, φ2 = 0)?
A: Its refractive index is 1.32433 ± 0.0004.

Q: What about the refractive index ([1]; 313.15 K, φ2 = 0) of the same compound?
A: The refractive index was 1.32015 ± 0.0004.

Q: What about the refractive index ([1]; 323.15 K, φ2 = 0) of the same compound?
A: The refractive index was 1.3167 ± 0.0004.

Q: With `CCCC[n+]1cccc(C)c1.F[B-](F)(F)F` [1-butyl-3-methylpyridinium tetrafluoroborate] + CO as the compound, how does the refractive index ([1]; 293.15 K, φ1 = 0.0958) read?
A: The refractive index was 1.34245 ± 0.0004.

Q: And the refractive index ([1]; 293.15 K, φ1 = 0.2025)?
A: Its refractive index is 1.35728 ± 0.00041.

Q: What about the refractive index ([1]; 293.15 K, φ1 = 0.2756) of the same compound?
A: Its refractive index is 1.36702 ± 0.00041.

Q: And the refractive index ([1]; 293.15 K, φ1 = 0.3528)?
A: Its refractive index is 1.37693 ± 0.00041.

Q: And the refractive index ([1]; 293.15 K, φ1 = 0.4508)?
A: Its refractive index is 1.38917 ± 0.00042.

Q: And the refractive index ([1]; 293.15 K, φ1 = 0.5501)?
A: The refractive index was 1.40126 ± 0.00042.

Q: And the refractive index ([1]; 293.15 K, φ1 = 0.6751)?
A: Its refractive index is 1.416 ± 0.00043.

Q: And the refractive index ([1]; 293.15 K, φ1 = 0.7686)?
A: The refractive index was 1.42667 ± 0.00043.

Q: What about the refractive index ([1]; 293.15 K, φ1 = 0.828) of the same compound?
A: The refractive index was 1.43333 ± 0.00044.

Q: And the refractive index ([1]; 293.15 K, φ1 = 0.8763)?
A: The refractive index was 1.43873 ± 0.00044.

Q: What about the refractive index ([1]; 293.15 K, φ1 = 0.9159) of the same compound?
A: The refractive index was 1.44307 ± 0.00044.

Q: And the refractive index ([1]; 293.15 K, φ1 = 0.9334)?
A: Its refractive index is 1.445 ± 0.00044.

Q: What about the refractive index ([1]; 293.15 K, φ1 = 0.9732) of the same compound?
A: The refractive index was 1.44949 ± 0.00045.

Q: And the refractive index ([1]; 293.15 K, φ1 = 1)?
A: The refractive index was 1.45248 ± 0.00045.

Q: And the refractive index ([1]; 303.15 K, φ1 = 0.0958)?
A: The refractive index was 1.33885 ± 0.0004.

Q: And the refractive index ([1]; 303.15 K, φ1 = 0.2025)?
A: Its refractive index is 1.35407 ± 0.00041.

Q: What about the refractive index ([1]; 303.15 K, φ1 = 0.2756) of the same compound?
A: Its refractive index is 1.364 ± 0.00041.

Q: What about the refractive index ([1]; 303.15 K, φ1 = 0.3528) of the same compound?
A: The refractive index was 1.37406 ± 0.00041.

Q: And the refractive index ([1]; 303.15 K, φ1 = 0.4508)?
A: The refractive index was 1.38641 ± 0.00042.

Q: And the refractive index ([1]; 303.15 K, φ1 = 0.5501)?
A: Its refractive index is 1.39855 ± 0.00042.

Q: And the refractive index ([1]; 303.15 K, φ1 = 0.6751)?
A: Its refractive index is 1.41337 ± 0.00043.

Q: What about the refractive index ([1]; 303.15 K, φ1 = 0.7686) of the same compound?
A: The refractive index was 1.42402 ± 0.00043.

Q: And the refractive index ([1]; 303.15 K, φ1 = 0.828)?
A: Its refractive index is 1.43069 ± 0.00044.

Q: What about the refractive index ([1]; 303.15 K, φ1 = 0.8763) of the same compound?
A: Its refractive index is 1.43606 ± 0.00044.

Q: What about the refractive index ([1]; 303.15 K, φ1 = 0.9159) of the same compound?
A: Its refractive index is 1.44042 ± 0.00044.

Q: And the refractive index ([1]; 303.15 K, φ1 = 0.9334)?
A: Its refractive index is 1.44233 ± 0.00044.

Q: What about the refractive index ([1]; 303.15 K, φ1 = 0.9732) of the same compound?
A: Its refractive index is 1.4468 ± 0.00045.

Q: What about the refractive index ([1]; 303.15 K, φ1 = 1) of the same compound?
A: The refractive index was 1.44976 ± 0.00045.

Q: And the refractive index ([1]; 313.15 K, φ1 = 0.0948)?
A: Its refractive index is 1.33503 ± 0.0004.

Q: And the refractive index ([1]; 313.15 K, φ1 = 0.2006)?
A: Its refractive index is 1.3505 ± 0.00041.

Q: And the refractive index ([1]; 313.15 K, φ1 = 0.2756)?
A: Its refractive index is 1.36083 ± 0.00041.

Q: What about the refractive index ([1]; 313.15 K, φ1 = 0.3501) of the same compound?
A: The refractive index was 1.37069 ± 0.00041.

Q: What about the refractive index ([1]; 313.15 K, φ1 = 0.4478) of the same compound?
A: Its refractive index is 1.38319 ± 0.00042.

Q: What about the refractive index ([1]; 313.15 K, φ1 = 0.5471) of the same compound?
A: The refractive index was 1.39542 ± 0.00042.

Q: And the refractive index ([1]; 313.15 K, φ1 = 0.6725)?
A: The refractive index was 1.41032 ± 0.00043.

Q: What about the refractive index ([1]; 313.15 K, φ1 = 0.7665) of the same compound?
A: The refractive index was 1.4211 ± 0.00043.

Q: What about the refractive index ([1]; 313.15 K, φ1 = 0.8262) of the same compound?
A: Its refractive index is 1.42784 ± 0.00044.

Q: And the refractive index ([1]; 313.15 K, φ1 = 0.875)?
A: The refractive index was 1.4333 ± 0.00044.

Q: And the refractive index ([1]; 313.15 K, φ1 = 0.915)?
A: The refractive index was 1.43765 ± 0.00044.

Q: What about the refractive index ([1]; 313.15 K, φ1 = 0.9327) of the same compound?
A: Its refractive index is 1.43961 ± 0.00044.

Q: And the refractive index ([1]; 313.15 K, φ1 = 0.9729)?
A: Its refractive index is 1.44409 ± 0.00045.

Q: And the refractive index ([1]; 313.15 K, φ1 = 1)?
A: The refractive index was 1.44706 ± 0.00045.

Q: And the refractive index ([1]; 323.15 K, φ1 = 0.0942)?
A: Its refractive index is 1.332 ± 0.0004.

Q: What about the refractive index ([1]; 323.15 K, φ1 = 0.1995) of the same compound?
A: The refractive index was 1.34774 ± 0.00041.

Q: What about the refractive index ([1]; 323.15 K, φ1 = 0.2718) of the same compound?
A: Its refractive index is 1.35784 ± 0.00041.

Q: What about the refractive index ([1]; 323.15 K, φ1 = 0.3485) of the same compound?
A: The refractive index was 1.3681 ± 0.00041.

Q: What about the refractive index ([1]; 323.15 K, φ1 = 0.4461) of the same compound?
A: The refractive index was 1.38056 ± 0.00042.

Q: And the refractive index ([1]; 323.15 K, φ1 = 0.5454)?
A: The refractive index was 1.39283 ± 0.00042.

Q: What about the refractive index ([1]; 323.15 K, φ1 = 0.6709) of the same compound?
A: Its refractive index is 1.40773 ± 0.00043.

Q: And the refractive index ([1]; 323.15 K, φ1 = 0.7652)?
A: The refractive index was 1.41853 ± 0.00043.

Q: And the refractive index ([1]; 323.15 K, φ1 = 0.8253)?
A: The refractive index was 1.42521 ± 0.00044.

Q: What about the refractive index ([1]; 323.15 K, φ1 = 0.8742) of the same compound?
A: Its refractive index is 1.43058 ± 0.00044.

Q: And the refractive index ([1]; 323.15 K, φ1 = 0.9144)?
A: The refractive index was 1.43492 ± 0.00044.

Q: What about the refractive index ([1]; 323.15 K, φ1 = 0.9322) of the same compound?
A: The refractive index was 1.43687 ± 0.00044.

Q: What about the refractive index ([1]; 323.15 K, φ1 = 0.9727) of the same compound?
A: The refractive index was 1.44133 ± 0.00045.

Q: And the refractive index ([1]; 323.15 K, φ1 = 1)?
A: Its refractive index is 1.44425 ± 0.00045.

Q: Which results are given for `CCCC[n+]1ccccc1.F[B-](F)(F)F` [1-butylpyridinium tetrafluoroborate] + CCO?
A: refractive index ([1]; 303.15 K, φ1 = 0.0806): 1.36595 ± 0.00042; refractive index ([1]; 303.15 K, φ1 = 0.1412): 1.37218 ± 0.00042; refractive index ([1]; 303.15 K, φ1 = 0.2622): 1.3839 ± 0.00042; refractive index ([1]; 303.15 K, φ1 = 0.3554): 1.39236 ± 0.00042; refractive index ([1]; 303.15 K, φ1 = 0.4323): 1.39905 ± 0.00042; refractive index ([1]; 303.15 K, φ1 = 0.561): 1.40993 ± 0.00043; refractive index ([1]; 303.15 K, φ1 = 0.6685): 1.41861 ± 0.00043; refractive index ([1]; 303.15 K, φ1 = 0.7512): 1.42527 ± 0.00044; refractive index ([1]; 303.15 K, φ1 = 0.8213): 1.43076 ± 0.00044; refractive index ([1]; 303.15 K, φ1 = 0.8742): 1.43497 ± 0.00044; refractive index ([1]; 303.15 K, φ1 = 0.9217): 1.43861 ± 0.00044; refractive index ([1]; 303.15 K, φ1 = 0.9612): 1.44158 ± 0.00045; refractive index ([1]; 303.15 K, φ1 = 1): 1.44454 ± 0.00045; refractive index ([1]; 313.15 K, φ1 = 0.0802): 1.36207 ± 0.00042; refractive index ([1]; 313.15 K, φ1 = 0.1405): 1.36844 ± 0.00042; refractive index ([1]; 313.15 K, φ1 = 0.2611): 1.38045 ± 0.00042; refractive index ([1]; 313.15 K, φ1 = 0.3541): 1.389 ± 0.00042; refractive index ([1]; 313.15 K, φ1 = 0.4308): 1.39575 ± 0.00042; refractive index ([1]; 313.15 K, φ1 = 0.5595): 1.40676 ± 0.00043; refractive index ([1]; 313.15 K, φ1 = 0.6672): 1.4156 ± 0.00043; refractive index ([1]; 313.15 K, φ1 = 0.7501): 1.42236 ± 0.00044; refractive index ([1]; 313.15 K, φ1 = 0.8205): 1.42796 ± 0.00044; refractive index ([1]; 313.15 K, φ1 = 0.8736): 1.43225 ± 0.00044; refractive index ([1]; 313.15 K, φ1 = 0.9213): 1.43596 ± 0.00044; refractive index ([1]; 313.15 K, φ1 = 0.961): 1.43898 ± 0.00045; refractive index ([1]; 313.15 K, φ1 = 1): 1.4419 ± 0.00045; refractive index ([1]; 323.15 K, φ1 = 0.0798): 1.35794 ± 0.00042; refractive index ([1]; 323.15 K, φ1 = 0.1398): 1.3646 ± 0.00042; refractive index ([1]; 323.15 K, φ1 = 0.26): 1.37704 ± 0.00042; refractive index ([1]; 323.15 K, φ1 = 0.3528): 1.38573 ± 0.00042; refractive index ([1]; 323.15 K, φ1 = 0.4294): 1.39254 ± 0.00042; refractive index ([1]; 323.15 K, φ1 = 0.5581): 1.40354 ± 0.00043; refractive index ([1]; 323.15 K, φ1 = 0.6659): 1.41255 ± 0.00043; refractive index ([1]; 323.15 K, φ1 = 0.749): 1.41938 ± 0.00044; refractive index ([1]; 323.15 K, φ1 = 0.8196): 1.42508 ± 0.00044; refractive index ([1]; 323.15 K, φ1 = 0.8729): 1.42947 ± 0.00044; refractive index ([1]; 323.15 K, φ1 = 0.9209): 1.43328 ± 0.00044; refractive index ([1]; 323.15 K, φ1 = 0.9607): 1.43633 ± 0.00045; refractive index ([1]; 323.15 K, φ1 = 1): 1.43924 ± 0.00045

Q: What does the source list for `CO` [methanol]?
A: refractive index ([2]; 293.15 K): 1.32843 ± 0.0004; refractive index ([2]; 303.15 K): 1.32433 ± 0.0004; refractive index ([2]; 313.15 K): 1.32015 ± 0.0004; refractive index ([2]; 323.15 K): 1.3167 ± 0.0004
